Data published in patent publication US6841533B1, “Conformationally constrained backbone cyclized interleukin-6 antagonists” (Peptor Limited, priority 1995, dated 2005).
Numbered stars: 1 amine (or outer) side, 2 acyl side, 3 side chain; on linkers, the order of the positions; unused ones are H or OH. Bridge positions count the residues as written; N and C are the ends. Square brackets hold non-standard residues; d marks the D form. Ends that are not written are not given here. Peptide text beside a SMILES is read from it. ξ: configuration not given here. TrpN2 = Trp building unit for backbone cyclization, bridging arm N2; Ala(Nα-(CH2)3CO) = C[C@@H](C(=O)[*:2])N(CCCC(=O)[*:3])[*:1]; Ala(Nα-(CH2)3NH) = C[C@@H](C(=O)[*:2])N(CCCN[*:3])[*:1]; Phe(4-NO2) = N[C@@H](Cc1ccc([N+](=O)[O-])cc1)C(=O)O; 4Pal = N[C@@H](Cc1ccncc1)C(=O)O; ξY = NC(Cc1ccc(O)cc1)C(=O)O; LysC3 = not defined here; Orn = NCCC[C@H](N)C(=O)O

What was measured:
[1] = test system: TF1 cells maintained with GM-CSF; experiment: Selectivity bioassay using TF1 cells maintained with GM-CSF; type: cell-based, human; details: for Inhibition (%), Experiment 24, 3H-T, GM-CSF: Experiment 24, thymidine incorporation
Description: (§1) The problem associated with toxicity (false positive results), could be overcome in the TF1 based assay since these cells can be induced by additional cytokines which are unrelated to IL-6 (not using the gp130 signal transducer). It, is possible to induce the cells to grow with IL-6 and with additional cytokine e.g. GM-CSF. Specific inhibition of IL-6 bioactivity is therefore expected to register only in cells induced by IL-6 and not with GM-CSF. […] Assay procedure is based on the procedure described in Fourcin et al. (ibid). The amount of viable cells at the end of the assay is determined by staining the cells with WST reagent as well as by measuring thymidine corporation (^3H-T).
(§2) Since the endpoint of the bioassay used is cell death, there is a need to check the specificity of the killing action, and to examine whether the cell death is due to inhibition of the IL-6 signaling pathway. The peptide analogs were therefore analyzed for their ability to induce non-specific cell death when the same cells were maintained with GM-CSF (instead of IL-6) as growth factor.

[2] = test system: TF1 cells maintained with IL-6; experiment: Bioassay using TF1 cells maintained with IL-6; type: cell-based, human; parameters: TF1: unit not given here; details: for Inhibition of IL-6 activity (%), Experiment 24, WST, IL-6 / Inhibition of IL-6 activity (%), Experiment 24, 3H-T, IL-6: cells with IL-6; for Inhibition of IL-6 activity (%), Experiment 24, 3H-T, IL-6: Experiment 24, thymidine incorporation; for TF1: MPS crude peptides, Table 6; for specificity of inhibition, IL-6 versus GM-CSF maintained TF1 cells: in words, Table 7 and FIG. 4
Description: TF1 cells (human erythroleukemia) cells require IL-6 for growth and thus inhibition of IL-6 bioactivity results in cell death, similar to T1165 cells. The origin of all relevant molecules is human.
as §1
The libraries were screened for binding of soluble IL-6. The information obtained was used for synthesis of backbone cyclic peptides in MPS format. Analyses for biological activity were performed on the TF1 human cell line.
as §2

B16.F10.9 melanoma cells = details: for B16F10.9 active at: theoretical crude concentration, MPS peptides; for concentration that fully blocks IL-6 activity: 200 ng/ml IL-6 and 125 ng/ml sIL-6R, three days, FIG. 2
Description: The F10.9 sub-line of B16 (murine melanoma) expresses gp130 but not IL-6R. Addition of human IL-6 and human IL-6R, or a chimera of IL-6/IL-6R results in differentiation which is associated with growth arrest of the cells. Inhibition of IL-6 results in continued growth. Since the end point of this assay is cell growth rather than cell death, this assay system was used primarily in order to differentiate between suspected toxic effects observed on B9 or T1165 cells, and true inhibition of IL-6 activity.
Evaluation of the results in this assay is possible using two methods. One method uses vital dyes for monitoring cell growth. The second method comprises visual observation of the cell morphology and establishing a cut off point based on the following observations:
Cells which are not treated with IL-6 create a monolayer that covers almost all the surface area. Treatment with IL-6 causes growth arrest and a morphological change: the cells become very narrow and elongated as compared to the more spread out shape of the non-treated cells.
Peptides were added to B16.F10.9 melanoma cells in the presence of 200 ng/ml IL-6 and 125 ng/ml sIL-6R. Incubation for three days.

Row | IC50 in the B16F10.9 cell assay (B16.F10.9 melanoma cells) | Compound | Inhibition (%), Experiment 24, WST, GM-CSF [1] | Inhibition (%), Experiment 24, 3H-T, GM-CSF [1] | Inhibition of IL-6 activity (%), Experiment 23, WST, a [2] | Inhibition of IL-6 activity (%), Experiment 23, WST, b [2] | Inhibition of IL-6 activity (%), Experiment 24, WST, IL-6 [2] | Inhibition of IL-6 activity (%), Experiment 24, 3H-T, IL-6 [2] | B16F10.9 active at (B16.F10.9 melanoma cells) | TF1 [2] | concentration that fully blocks IL-6 activity (B16.F10.9 melanoma cells) | specificity of inhibition, IL-6 versus GM-CSF maintained TF1 cells [2]
1 |  | Lys(ZCL)-GlyC2-Dab-(D)Glu-(D)AlaN3-(D)Trp-NH2 [Peptide 57] | 48% | 102% | 122% | 114% | 121% | 114% |  |  |  | 
2 |  | CC(C)C[C@@H]1NC(=O)[C@H](C)N(C(=O)[C@H](Cc2ccccc2)NC(=O)[C@@H](CCCNC(=N)N)NC(=O)[C@H](CCCCN)NC(=O)[C@H](CCCNC(=N)N)NC(=O)[C@@H](N)Cc2c[nH]c3ccccc23)CCCC(=O)NCCCN([C@@H](C)C(N)=O)C(=O)C(Cc2ccc(O)cc2)NC(=O)[C@H](CCCNC(=N)N)NC1=O (stereo partly drawn) [Trp-Arg-Lys-(D)Arg-Phe-AlaC3-Leu-Arg-BTyr-AlaN3] (H-WRK[dR]F[Ala(Nα-(CH2)3CO)]LR[ξY][Ala(Nα-(CH2)3NH)]-NH2; lactam 6-10; C-terminus assumed) |  |  |  |  |  |  | <12 µM | 32 |  | 
3 |  | LysC3-Lys-4PyrAla-Orn-TrpN2-(p-NO2)Phe-NH2 ([LysC3]K[4Pal][Orn][TrpN2][Phe(4-NO2)]-NH2; bridge 1-5; reading uncertain; also: backbone cyclization, places not given here, printed as LysC3-Lys-4PyrAla-Orn-TrpN2-(p-NO2)Phe-NH2) [Peptide 40] | −45% | −63% | 42% | 72% | 43% | 61% |  |  |  | 
4 |  | C[C@@H](C(N)=O)N1CCCNC(=O)CCCN(C(=O)[C@@H](Cc2ccccc2)NC(=O)[C@@H](CCCNC(=N)N)NC(=O)[C@H](CCCCN)NC(=O)[C@H](CCCNC(=N)N)NC(=O)[C@H](N)CCCCN)[C@@H](C)C(=O)N[C@@H](CCCCN)C(=O)N[C@@H](CCCNC(=N)N)C(=O)N[C@@H](Cc2ccc(O)cc2)C1=O [(D)Lys-Arg-Lys-(D)Arg-(D)Phe-AlaC3-Lys-Arg-Tyr-AlaN3] (H-[dK]RK[dR][dF][Ala(Nα-(CH2)3CO)]KRY[Ala(Nα-(CH2)3NH)]-NH2; lactam 6-10) |  |  |  |  |  |  | 62 µM | 17 |  | 
5 |  | (D)Lys-Arg-Lys-Arg-Phe-AlaC3-Lys-Arg-(D)Tyr-AlaN3 |  |  |  |  |  |  | not active | 21 |  | 
6 |  | CC(C)C[C@@H](NC(=O)[C@H](CCCNC(=N)N)NC(=O)[C@H](N)CCCCN)C(=O)N[C@H](CCCNC(=N)N)C(=O)N[C@H](Cc1ccccc1)C(=O)N1CCCC(=O)NCCCN([C@@H](C)C(N)=O)C(=O)[C@@H](Cc2ccc(O)cc2)NC(=O)[C@H](CCCNC(=N)N)NC(=O)[C@@H](CC(C)C)NC(=O)[C@@H]1C [PTR 5041, (D)Lys-Arg-(D) Leu-(D) Arg-(D)Phe-AlaC3-(D)Leu-Arg-(D)Tyr-AlaN3-NH2] (H-[dK]R[dL][dR][dF][Ala(Nα-(CH2)3CO)][dL]R[dY][Ala(Nα-(CH2)3NH)]-NH2; lactam 6-10) |  |  |  |  |  |  | 47 µM | 92 | about 250 nM | 
7 |  | (D)Lys-Arg-Lys-Arg-Phe-AlaC3-Leu-(D)Arg-(D)Tyr-AlaN3 |  |  |  |  |  |  | not active | 19 |  | 
8 |  | CC(C)C[C@H]1NC(=O)[C@H](C)N(C(=O)[C@H](Cc2ccccc2)NC(=O)[C@@H](CCCNC(=N)N)NC(=O)[C@H](CCCCN)NC(=O)[C@H](CCCNC(=N)N)NC(=O)[C@H](N)CCCCN)CCCC(=O)NCCCN([C@@H](C)C(N)=O)C(=O)[C@H](Cc2ccc(O)cc2)NC(=O)[C@H](CCCNC(=N)N)NC1=O [(D)Lys-Arg-Lys-(D)Arg-Phe-AlaC3-(D)Leu-Arg-Tyr-AlaN3] (H-[dK]RK[dR]F[Ala(Nα-(CH2)3CO)][dL]RY[Ala(Nα-(CH2)3NH)]-NH2; lactam 6-10) |  |  |  |  |  |  | 62 µM | 3 |  | 
9 |  | (D)Bip-GlyC2-Dab-(D)Glu-(D)AlaN3-Abu-NH2 [Peptide 91] | 45% | 75% | 98% | 106% | 123% | 113% |  |  |  | 
10 |  | Lys-TrpC2-(D)Arg-Lys-TrpN3-Gln-NH2 [Peptide 34] | −27% | 3% | 97% | 108% | 96% | 106% |  |  |  | clearly specific to the IL-6 pathway
11 | around 20 μg/ml | CC(C)C[C@H](NC(=O)[C@H](CCCNC(=N)N)NC(=O)[C@@H](N)Cc1ccc(O)cc1)C(=O)N[C@@H](CCCNC(=N)N)C(=O)N[C@@H](Cc1ccccc1)C(=O)N1CCCC(=O)NCCCN([C@@H](C)C(=O)N[C@@H](C)C(=O)N[C@@H](CCC(=O)O)C(N)=O)C(=O)[C@H](Cc2ccc(O)cc2)NC(=O)[C@H](CCCNC(=N)N)NC(=O)[C@H](CC(C)C)NC(=O)[C@@H]1C [PTR 5037, Tyr-Arg-Leu-Arg-Phe-AlaC3-Leu-Arg-Tyr-AlaN3-Ala-Glu] (H-YRLRF[Ala(Nα-(CH2)3CO)]LRY[Ala(Nα-(CH2)3NH)]AE-NH2; lactam 6-10; N-terminus and C-terminus assumed) |  |  |  |  |  |  |  |  |  | 
12 |  | Lys(ZCL)-AlaC2-Dab-(D)Glu-(D)AlaN3-(D)Trp-NH2 [Peptide 25] | −49% | 26% | 54% | 54% | 77% | 104% |  |  |  | 
13 |  | Dab-TrpC2-Dpr-Arg(MTR)-(D)AlaN3-Glu-NH2 [Peptide 83] | −5% | 12% | 2% | 4% | 31% | 51% |  |  |  | 
14 |  | (D)Bip-(D)LysC3-4PyrAla-Orn-TrpN2-(p-NO2)Phe-NH2 [Peptide 41] | 25% | −13% | 96% | 100% | 95% | 101% |  |  |  | clearly specific to the IL-6 pathway
15 |  | Gln-GlyC2-(D)Dab-Arg(MTR)-TrpN2-Trp-NH2 [Peptide 61] | 4% | −49% | 54% | 58% | 86% | 58% |  |  |  | 
16 |  | (D)PheC2-(D)Cit-Dpr-HomArg-(D)GlnN2-(D)Gln-NH2 [Peptide 17] | −23% | −30% | 50% | 44% | 67% | 80% |  |  |  | 
17 |  | (D)Bip-(D)LysC2-Lys-Lys(ZCl)-(D)TrpN2-Abu-NH2 [Peptide 88] | 103% | 115% | 96% | 98% | 112% | 114% |  |  |  | 
18 |  | (D)PheC2-(D)Bip-Arg-Lys-(D)TrpN2-Gln-NH2 [Peptide 81] | 43% | 27% | 38% | 46% | 92% | 93% |  |  |  | 
19 |  | Trp-Arg-Lys-(D)Arg-Phe-AlaC3-Leu-Arg-Tyr-AlaN3-NH2 [PTR 5049] |  |  |  |  |  |  |  |  | not active | 
20 |  | (D)Bip-(D)LysC3-Orn-Lys-AsnN2-Arg-NH2 [Peptide 20] | −59% | −42% | 37% | 56% | 49% | 78% |  |  |  | 
21 |  | LysC4-Lys-(D)Arg-Lys-TrpN3-Gln-NH2 [Peptide 33] | 39% | 70% | 116% | 119% | 112% | 113% |  |  |  | 
